From US20240016765A1, “Use of an alkaloid compound in the preparation of products for the prevention and/or treatment of cardiac damage” (NORTHWEST INSTITUTE OF PLATEAU BIOLOGY, CHINESE ACADEMY OF …, priority 2021, published 2024)

How the values were obtained:
Type in all cases: cell-based
[1] = tested on: Cleaved-Caspase-3; assay: Western blot of Cleaved-Caspase-3 in DOX-treated H9c2 cardiomyocytes; conditions: FIG. 3
Experimental: (§1) (2) Incubate H9c2 cells with alkaloid compound I for 1 hour, then add […] DOX and incubate for 24 hours; extract the proteins, proceed with hydrolysis and collect the resulting solution, centrifuge at 12000 rpm for 15 minutes, collect the supernatant and discard the precipitate, store under −80° C. until analysis. Perform SDS-PAGE electrophoresis (Stepl voltage set at 80V for 30 minutes, followed by Step2 voltage set at 120V for 180 minutes), using 5% concentrated gel. Carry out membrane transfer using a PVDF membrane, with a current of 80 mA for 30 minutes. Then, conduct the closure and hybridization by using 5% skim milk powder for 1 hour of closure, followed by overnight incubation with primary antibody, and 1-2 hours of incubation with secondary antibody at room temperature with gentle shaking. Finally, visualize the proteins by using ECL reagent and observe the expression of Caspase-3 and p-JNK/JNK proteins using a gel imaging system.

[2] = tested on: p-JNK; assay: Western blot of p-JNK/JNK in DOX-treated H9c2 cardiomyocytes; conditions: FIG. 4; for p-JNK expression level compared with DOX model group: 1 h incubation, then DOX 24 h
Experimental: as §1

[3] = tested on: H9c2 cardiomyocytes; assay: Toxicity of alkaloid compound I on H9c2 cardiomyocytes (MTT colorimetric method); conditions: 24 h incubation, FIG. 1
Experimental: H9c2 cells are incubated with different concentrations (0.1 μM, 1 μM, 5 μM, 10 μM, 20 μM, 40 μM, 80 μM, 160 μM) of alkaloid compounds I for 24 h, and then the toxic effects of the alkaloid compounds on cardiomyocytes are evaluated by MTT colorimetric method.

[4] = tested on: H9c2 cardiomyocytes; assay: Effect on DOX-induced H9c2 cardiomyocyte toxicity (MTT colorimetric assay); conditions: 1 h pre-incubation, then 2.5 μM DOX 24 h, FIG. 2
Experimental: (1) H9c2 cells are pre-incubated with alkaloid compound I for lh, then add 2.5 μM doxorubicin (DOX), incubate for 24 h. MTT colorimetric assay is used to determine the apoptotic activity of alkaloid compound I on DOX-induced cardiomyocytes and determine the optimal range of the dose concentration.

| Cleaved-Caspase-3 expression level compared with Con group ([1]; DOX model group, DOX 24 h) | p-JNK expression level compared with Con group ([2]; DOX model group, DOX 24 h) | SMILES | Cleaved-Caspase-3 expression level compared with DOX model group ([1]; 10 μM, 20 μM and 40 μM, 1 h incubation, then DOX 24 h) | toxic effect on H9c2 cell viability compared with Con group ([3]; 80 μM) | toxic effect on H9c2 cell viability compared with Con group ([3]; 0.1-40 μM) | difference from DOX model group in DOX-induced cardiomyocyte toxicity ([4]; 5-80 μM) | inhibition of DOX-induced cardiomyocyte toxicity compared with DOX model group ([4]; different concentration ranges) | p-JNK expression level compared with DOX model group ([2]; high-dose 40 μM) | p-JNK expression level compared with DOX model group ([2]; low-dose 10 μM) | p-JNK expression level compared with DOX model group ([2]; moderate-dose 20 μM) |
| --- | --- | --- | --- | --- | --- | --- | --- | --- | --- | --- |
| significantly higher | significantly higher | COc1cccc2c1C(=O)c1c(O)c3c(c(O)c1C2=O)C[C@@](O)(C(=O)CO)C[C@@H]3O[C@H]1C[C@H](N)[C@H](O)[C@H](C)O1 [DOX, doxorubicin, reference compound] | – | – | – | – | – | – | – | – |
| – | – | O=C(/C=C/c1ccc(O)cc1)NCCCCO [compound I, 4-[(E)-p-coumaroylamino]butan-1-ol] | able to inhibit the elevation of Cleaved-Caspase-3 level induced by DOX to varying degrees | significantly different compared with the Con group | not statistically different from the Con group | a significant difference or a highly significant difference | all exhibit inhibition of DOX-induced cardiomyocyte toxicity | a highly significant difference | no statistically significant difference | a highly significant difference |
